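Cells were grown in 96-well plates and exposed to each compound for 48 hours at five concentrations; endpoints were interpolated linearly between bracketing concentrations, or set to the highest concentration if not reached. The concentration for 50% growth inhibition is given as GI50.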 Calls of active or inactive are those of the source. Cut-off read from the data, not from the text of the source: active = GI50 up to about 1.1 µM and inactive = higher.
How the values were obtained:
Assay in all cases: DTP human tumour cell line panel, 48 h
NCI-H522 = system: NCI-H522
SF-295 = system: SF-295
MDA-N = system: MDA-N
BT-549 = system: BT-549
HOP-62 = system: HOP-62
HT-29 = system: HT-29
NCI/ADR-RES = system: NCI/ADR-RES
OVCAR-4 = system: OVCAR-4
U-251 = system: U-251
CAKI-1 = system: CAKI-1
RPMI-8226 = system: RPMI-8226
M14 = system: M14
HCT-116 = system: HCT-116
OVCAR-8 = system: OVCAR-8
SF-539 = system: SF-539
UO-31 = system: UO-31
MDA-MB-231 = system: MDA-MB-231
A549 = system: A549
A498 = system: A498
NCI-H226 = system: NCI-H226
DU-145 = system: DU-145
Malme-3M = system: Malme-3M
786-0 = system: 786-0
RXF 393 = system: RXF 393
HOP-92 = system: HOP-92
HL-60 = system: HL-60
SK-MEL-2 = system: SK-MEL-2
SW-620 = system: SW-620
SNB-75 = system: SNB-75
OVCAR-5 = system: OVCAR-5
SN12C = system: SN12C
HCT-15 = system: HCT-15
HCC 2998 = system: HCC 2998
K562 = system: K562
Hs-578T = system: Hs-578T
TK-10 = system: TK-10
EKVX = system: EKVX
UACC-62 = system: UACC-62
SF-268 = system: SF-268
UACC-257 = system: UACC-257
KM12 = system: KM12
NCI-H460 = system: NCI-H460
COLO 205 = system: COLO 205
PC-3 = system: PC-3
SNB-19 = system: SNB-19
IGROV-1 = system: IGROV-1
MOLT-4 = system: MOLT-4
CCRF-CEM = system: CCRF-CEM
ACHN = system: ACHN
LOX IMVI = system: LOX IMVI
MDA-MB-435 = system: MDA-MB-435
SK-MEL-5 = system: SK-MEL-5
SK-OV-3 = system: SK-OV-3
SR = system: SR
T47D = system: T47D
SK-MEL-28 = system: SK-MEL-28
OVCAR-3 = system: OVCAR-3
MCF7 = system: MCF7
NCI-H23 = system: NCI-H23

Question: How did the GI50 (NCI-H522) turn out when `N#Cc1c(N2CCCC2)ncn(Cc2ccccc2)c1=S` was run?
Answer: > 90.4 µM (inactive)

Question: And the GI50 (SF-295)?
Answer: 94.6 µM (inactive)

Question: What about the GI50 (MDA-N) of the same molecule?
Answer: > 100 µM (inactive)

Question: What about the GI50 (BT-549) of the same molecule?
Answer: > 100 µM (inactive)

Question: And the GI50 (HOP-62)?
Answer: 40.3 µM (inactive)

Question: And the GI50 (HT-29)?
Answer: > 100 µM (inactive)

Question: And the GI50 (NCI/ADR-RES)?
Answer: 65 µM (inactive)

Question: And the GI50 (OVCAR-4)?
Answer: 44.2 µM (inactive)

Question: What about the GI50 (U-251) of the same molecule?
Answer: 38.9 µM (inactive)

Question: And the GI50 (CAKI-1)?
Answer: > 48 µM (inactive)

Question: And the GI50 (RPMI-8226)?
Answer: > 100 µM (inactive)

Question: And the GI50 (M14)?
Answer: > 100 µM (inactive)

Question: And the GI50 (HCT-116)?
Answer: > 100 µM (inactive)

Question: And the GI50 (OVCAR-8)?
Answer: 57.1 µM (inactive)

Question: What about the GI50 (SF-539) of the same molecule?
Answer: 40.1 µM (inactive)

Question: And the GI50 (UO-31)?
Answer: > 100 µM (inactive)

Question: What about the GI50 (MDA-MB-231) of the same molecule?
Answer: > 88.3 µM (inactive)

Question: And the GI50 (A549)?
Answer: > 100 µM (inactive)

Question: What about the GI50 (A498) of the same molecule?
Answer: 40.6 µM (inactive)

Question: And the GI50 (NCI-H226)?
Answer: > 96.2 µM (inactive)

Question: What about the GI50 (DU-145) of the same molecule?
Answer: 86.3 µM (inactive)

Question: What about the GI50 (Malme-3M) of the same molecule?
Answer: > 87.9 µM (inactive)

Question: What about the GI50 (786-0) of the same molecule?
Answer: 36.2 µM (inactive)

Question: And the GI50 (RXF 393)?
Answer: 30.3 µM (inactive)

Question: What about the GI50 (HOP-92) of the same molecule?
Answer: 22.4 µM (inactive)

Question: What about the GI50 (HL-60) of the same molecule?
Answer: > 100 µM (inactive)

Question: And the GI50 (SK-MEL-2)?
Answer: > 100 µM (inactive)

Question: What about the GI50 (SW-620) of the same molecule?
Answer: > 100 µM (inactive)

Question: What about the GI50 (SNB-75) of the same molecule?
Answer: 25.8 µM (inactive)

Question: What about the GI50 (OVCAR-5) of the same molecule?
Answer: > 100 µM (inactive)

Question: And the GI50 (SN12C)?
Answer: > 100 µM (inactive)

Question: What about the GI50 (HCT-15) of the same molecule?
Answer: > 100 µM

Question: And the GI50 (HCC 2998)?
Answer: > 100 µM (inactive)

Question: And the GI50 (K562)?
Answer: > 100 µM (inactive)

Question: What about the GI50 (Hs-578T) of the same molecule?
Answer: > 54.8 µM (inactive)

Question: And the GI50 (TK-10)?
Answer: > 100 µM (inactive)

Question: What about the GI50 (EKVX) of the same molecule?
Answer: > 79.3 µM (inactive)

Question: What about the GI50 (UACC-62) of the same molecule?
Answer: 68.7 µM (inactive)

Question: What about the GI50 (SF-268) of the same molecule?
Answer: 33.6 µM (inactive)

Question: What about the GI50 (UACC-257) of the same molecule?
Answer: > 100 µM (inactive)

Question: And the GI50 (KM12)?
Answer: > 100 µM (inactive)

Question: And the GI50 (NCI-H460)?
Answer: > 100 µM (inactive)

Question: And the GI50 (COLO 205)?
Answer: > 100 µM (inactive)

Question: And the GI50 (PC-3)?
Answer: 71.3 µM (inactive)

Question: And the GI50 (SNB-19)?
Answer: 58.5 µM (inactive)

Question: And the GI50 (IGROV-1)?
Answer: > 87.9 µM (inactive)

Question: And the GI50 (MOLT-4)?
Answer: > 100 µM (inactive)

Question: What about the GI50 (CCRF-CEM) of the same molecule?
Answer: > 100 µM (inactive)

Question: And the GI50 (ACHN)?
Answer: > 92.7 µM (inactive)

Question: What about the GI50 (LOX IMVI) of the same molecule?
Answer: > 100 µM (inactive)

Question: And the GI50 (MDA-MB-435)?
Answer: > 100 µM (inactive)

Question: What about the GI50 (SK-MEL-5) of the same molecule?
Answer: > 100 µM (inactive)

Question: What about the GI50 (SK-OV-3) of the same molecule?
Answer: > 100 µM (inactive)

Question: What about the GI50 (SR) of the same molecule?
Answer: > 100 µM (inactive)

Question: And the GI50 (T47D)?
Answer: > 86.7 µM (inactive)

Question: And the GI50 (SK-MEL-28)?
Answer: > 100 µM (inactive)

Question: And the GI50 (OVCAR-3)?
Answer: 60.5 µM (inactive)

Question: And the GI50 (MCF7)?
Answer: 49.1 µM (inactive)

Question: What about the GI50 (NCI-H23) of the same molecule?
Answer: > 100 µM (inactive)
